Test results: US9260481B2, “Peptide derivatives as antibiotics” (priority 2011, dated 2016)
≈ marks a conversion by molar mass, not a printed value. Where two headings read alike, the source gives them in different places. Numbered stars: 1 amine (or outer) side, 2 acyl side, 3 side chain; on linkers, the order of the positions; unused ones are H or OH. Square brackets hold non-standard residues; d marks the D form. Peptide text beside a SMILES is read from it. * marks the point of attachment. ξ: configuration not given here. X1 = NCC(O)CCC(N[*:1])C(=O)[*:2]; ΔZArg = N=C(N)NCC/C=C(\N)C(=O)O; ξDab(3-OH) = NCC(O)C(N)C(=O)O; Orn = NCCC[CH](N)C(=O)O; NH(CH2)4NH2 = NCCCCN*

Legend:
Cytotoxicity test (MTS) = format: cell-based; details: human; for CC50 at 72 h: MTS; for viability at 72 h: dose of up to 100 μg/mL, read-out: cell viability
Experimental: The cytotoxicity of the Odilomycins A-C was investigated against Human colon adenocarcinoma (HT29) cells and Human normal lung fibroblasts (MRC-5) cells. 200 μL of the cell suspension of HT29 (human colorectal adenocarcinoma) prepared in RPMI 1640+1% L-Glutamine supplemented with 10% (v/v) fetal calf serum and 200 μL of the cell suspension of MRC5 (human lung fibroblast) prepared in Dulbecco's modified Eagle's medium supplemented with 25 mM glucose and 10% (v/v) fetal calf serum were inoculated into 96-well plates.
The inoculating cell number was 800 cells per well for HT29 and 2100 cells per well for MRC-5. The microplates were incubated at 37° C. for 24 h with 5% of CO2.
Twenty four hours later, Odilomycin A, B or C dissolved in water were added for 72 h at a final concentration from 0.78 μg/mL to 100 μg/mL in a fixed volume of water (1% final concentration). […] Experiments were done in triplicate.

P. aeruginosa ATCC 27853 = format: cell-based, Pseudomonas aeruginosa; details: ATCC 27853, 24 h
Experimental: (§1) Minimal bactericidal concentrations (MBCs) were established by extending the MIC procedure to the evaluation of bactericidal activity. After 24 hours, 10 μL were drawn from the wells, serially diluted and then spotted onto suitable agar plates. The plates were incubated at 37° C. overnight. […] All the experiments were done in triplicate.

S. aureus ATCC 13709 = format: cell-based, Staphylococcus aureus; details: ATCC 13709, 24 h
Experimental: as §1

Pseudomonas aeruginosa = test system: Pseudomonas aeruginosa
Experimental: (§2) The minimal inhibitory concentrations (MIC) were determined according to the Clinical and Laboratory Standards Institute (CLSI) conditions guidelines detailed in Table 7. Assays were performed in triplicate.
(§3) Preparation of Inocula. Five to 10 well-isolated colonies were picked and resuspended in 3 ml sterile saline. The inoculum was re-suspended by vigorous shaking on a vortex mixer for 15 s. Turbidity was adjusted to McFarland standard 0.5 ([…]). The inoculum was further diluted in the appropriate media (Table 7) to give a final inoculum in each well of ˜2-8×10^5 CFU/ml.
(§4) Addition of Test Article. Stock solutions of Odilomycin A or comparator were diluted in the appropriate media to give a maximum starting concentration of 50 μg/mL in the assay. 50 μL of medium was dispensed into each well in columns two to 12 of a 96 well plate. 100 μL of the appropriate test compound solution (100 μg/mL) was dispensed into each well in column one. In the case of M. catarrhalis, M. haemolytica and P. multocida these values were doubled (a final assay volume of 200 μL was used). […] Columns 11 and 12 served as positive (no drug or test article, inoculum added), and negative (no drug, test article, or inoculum added) growth controls respectively.
(§5) Addition of Bacterial Strains. 50 μL of each inoculum suspension was added to the appropriate wells, resulting in a final volume of 100 μL consisting of 50 μL diluted compound or diluents, and 50 μL of inoculum or broth alone.

Bacteroides fragilis = assay: microbe, parasite or virus in culture; details: Bacteroides fragilis, ATCC25238
Experimental: as §2, §3, §4, §5

[1] = HT29 colon adenocarcinoma cells
[2] = MRC-5 normal lung fibroblasts, MRC-5 cells

SMILES	CC50 at 72 h (Cytotoxicity test (MTS); [1])	viability at 72 h (Cytotoxicity test (MTS); [1])	CC50 at 72 h (Cytotoxicity test (MTS); [2])	viability at 72 h (Cytotoxicity test (MTS); [2])	MBC (P. aeruginosa ATCC 27853)	MBC (S. aureus ATCC 13709)	MIC (Pseudomonas aeruginosa)	MIC (Bacteroides fragilis)
N=C(N)NCC/C=C(\NC(=O)C(CCCCN)NC(=O)C(Cc1cnc[nH]1)NC(=O)C1CCCN1C(=O)C(CCCN)NC(=O)CNC(=O)C(NC(=O)C(NC(=O)C(N)CCCCN)C(O)CN)C(O)CN)C(=O)NC(CCC(O)CN)C(=O)NCCCCN (stereo not drawn) [Odilomycin B, Lys-(3-hydroxy-2,4-diaminobutanoic acid)-(3-hydroxy-2,4-diaminobutanoic acid)-Gly-Ornithine-Pro-His-Lys-(2,3-dehydroarginine)-(5-hydroxylysine)-(1,4-diaminobutane)] (H-K[ξDab(3-OH)][ξDab(3-OH)]G[Orn]PHK[ΔZArg][X1]-{NH(CH2)4NH2}; configuration not given here)	> 100 µg/mL	100%	> 100 µg/mL	100%	3.12 µg/mL (≈ 2.44 µM)	0.78 µg/mL (≈ 0.609 µM)	–	–
N=C(N)NCC/C=C(\NC(=O)C(CCCCN)NC(=O)C(Cc1cnc[nH]1)NC(=O)C1CCCN1C(=O)C(CCCN)NC(=O)CNC(=O)C(NC(=O)C(NC(=O)C(N)CCCCN)C(O)CN)C(O)CN)C(=O)NC(CCCCN)C(=O)NCCCCN (stereo not drawn) [Odilomycin C, Lys-(3-hydroxy-2,4-diaminobutanoic acid)-(3-hydroxy-2,4-diaminobutanoic acid)-Gly-Ornithine-Pro-His-Lys-(2,3-dehydroarginine)-Lys-(1,4-diaminobutane)] (H-K[ξDab(3-OH)][ξDab(3-OH)]G[Orn]PHK[ΔZArg]K-{NH(CH2)4NH2}; configuration not given here)	> 100 µg/mL	100%	> 100 µg/mL	100%	12.5 µg/mL (≈ 9.88 µM)	1.56 µg/mL (≈ 1.23 µM)	6.25 µg/mL (≈ 4.94 µM)	–
Cc1ncc([N+](=O)[O-])n1CCO [metronidazole, reference compound]	–	–	–	–	–	–	–	0.39 µg/mL (≈ 2.28 µM)
